Assay results published in patent US20220098237A1, “COMPOUND, SYNTHESIS INTERMEDIATE, USE, PHARMACEUTICAL COMPOSITION AND NEUROMODULATORY THERAPEUTIC METHOD” (Remer Consultores Assessoria Empresarial Ltda, priority 2017, published 2022).
Several values for one entry are separate records, joined by “and”; a condition that tells them apart may be missing. Equal entries are not always repeated. Entries after “also recorded” stand apart in the source; their conditions may differ. Peptide text beside a SMILES is read from it.

Experiments:
[1] = Stability tests under extreme conditions (freezing 24 hours; heating at 100° C. for 10 minutes), HPLC; type: physicochemical
Source text: In the vertical axis the area of the HPLC peak is shown. […] Statistical significance data are also shown, the asterisks indicating: (*) P<0.05 vs Control (***) P<0.005 vs Control; (****) P<0.0001 vs Control.

pilocarpine model = assay: Pilocarpine model, oral pre-treatment (salivation, first signal, seizure, death/survival); type: in vivo, Mus musculus; design: time of occurrence of the first seizure: unit not given here
Protocol: In some examples, the neuromodulatory/neuroprotective/anticonvulsive effects of the composition of the invention have been evaluated in vivo by oral administration to animals. The pharmaceutical composition of the invention was administered to mammals (Mus musculus or mouse) with an oral dose of treatment with different embodiments of the compound of the invention, compared to other compounds or to saline control. In these experiments, the test compounds were administered orally 10 minutes prior to (intraperitoneal) administration of pilocarpine. Pilocarpine hydrochloride (320 mg/kg, Merck), dissolved in 0.9% sterile saline, was given intraperitoneally for induction of SE (status epileticus) (Turski et al., 1983). In the Turski model, the neurotoxic effects begin about 15-25 minutes after the injection of Pilo, with the occurrence of motor and limbic seizures, the animals evolving to a state of continuous (clonic) seizures that characterize SE Sanabria and Cavalheiro, 2000).
In this embodiment, the anticonvulsive effect of the composition of the invention prepared according to Example 2 was evaluated by prior administration of the inventive composition and subsequent administration of pilocarpine to animals. FIG. 4 presents the results of the pilocarpine model, indicating the time for the first salivation with the administration of control, cannabidiol (30 mg/kg), the compound of the invention R1-N-AA1-K-AA2-R2, in which embodiment is the tetrapeptide of SEQ ID No. 1 (500 μg/kg).
In this embodiment, the neuromodulatory effect of the composition of the invention prepared according to Example 2 was evaluated by prior administration of the inventive composition and subsequent administration of pilocarpine to animals. Other test compounds were also evaluated as described below. Administration of pilocarpine leads to severe brain injury, neurotoxicity and usually culminates in the death of the animals. This substance was used in the experiments described below but its harmful neuronal/encephalic effects were inhibited by the prior administration of the composition of the present invention: the vast majority of the animals subjected to these experiments had no symptoms related to brain lesions and survived without apparent damage, in contrast to groups of animals treated with other known substances.
The composition of the invention was prepared according to Example 2 with due concentration correction, for comparison of the effects of SEQ ID No. 1, SEQ ID No. 7 and NFK, such compounds having been previously administered to the animal groups.
In this embodiment, the anticonvulsant effect of different embodiments of the compound of the invention with the structure represented by SEQ ID No. 1, SEQ ID No. 7, NFK, FKF, FKL, as well as the NF, FK, KF and KL dipeptides were evaluated in the pilocarpine model.

CB1 receptor = assay: Screening with anti-CB1 antibodies sensitive to activation/conformational changes, ELISA on Striatum membranes; type: binding; settings: ligands 1 μM; Assay 1-5
Protocol: Antibodies sensitive to CB1 receptor activation were generated and characterized by their specificities. For screening compounds, Striatum membranes (5 μg per well) were plated on NUNC-Immuno 96-well plates (Nalge-Nunc) and dried at room temperature. Membranes were washed with PBS (phosphate buffered saline) and incubated with or without different ligands (1 μM) and the extent of receptor recognition by the antibodies was measured by ELISA. The results of the tests are shown in Table 5, which indicates the % binding to the CB1 receptor in relation to control: […]

human CB1 receptor = target: T1, human CB1 receptor (Homo sapiens, UniProt P21554); assay: In vitro radioligand binding, [3H] CP 55940, recombinant CHO cells; settings: radioligand agonist CP55940, read-out: % of inhibition of binding of specific control, Mean value
T1 construct: expressed in transfected cells; host or cells: CHO cells
T1 sequence (P21554 whole entry): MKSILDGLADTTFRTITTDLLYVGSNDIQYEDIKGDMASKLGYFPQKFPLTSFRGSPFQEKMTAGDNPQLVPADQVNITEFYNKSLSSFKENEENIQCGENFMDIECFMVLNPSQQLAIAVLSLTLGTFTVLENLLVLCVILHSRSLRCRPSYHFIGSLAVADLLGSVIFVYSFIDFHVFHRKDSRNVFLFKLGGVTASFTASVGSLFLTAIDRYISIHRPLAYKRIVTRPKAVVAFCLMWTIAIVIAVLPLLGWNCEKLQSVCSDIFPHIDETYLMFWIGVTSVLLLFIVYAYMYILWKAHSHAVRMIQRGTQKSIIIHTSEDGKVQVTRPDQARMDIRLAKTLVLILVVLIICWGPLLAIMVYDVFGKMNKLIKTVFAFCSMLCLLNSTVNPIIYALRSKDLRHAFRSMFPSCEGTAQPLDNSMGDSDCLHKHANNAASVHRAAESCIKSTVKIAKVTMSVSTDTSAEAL
Protocol: In vitro binding assays were performed using recombinant CHO cells expressing the human CB1 receptor and the [3H]
Results are expressed as the percentage of binding of the specific control according to formula: […]
And the percentual inhibition of binding of specific control obtained in the presence of the compound of the invention is:
IC50 values (concentration that causes half of maximal inhibition of specific control binding) and Hill (nH) coefficients were determined by nonlinear regression of the competition curves generated with the mean values of the replicates using the Hill equation:
Where Y=specific binding, A=asymptotic left of curve, D=asymptotic right of curve, C=compound concentration, C50=IC50 and nH=curve coefficient/slope factor. This analysis was performed using the Hill software validated by comparison with data generated by Sigmaplot 4.0 software. Inhibition constants (Ki) were calculated using the equation of Chen Prusoff:
Where L=concentration of the radioligand in the assay; KD=affinity of the radioligand for the receptor. A graph is used to determine the KD.

human CB2 receptor = target: T2, human CB2 receptor (Homo sapiens, UniProt P34972); assay: In vitro radioligand binding, [3H] WIN55212-2, recombinant CHO cells; design: % of inhibition of binding of specific control, 1st/2nd measurement: unit of the concentration uncertain; settings: for % of inhibition of binding of specific control, 1st/2nd measurement: radioligand agonist WIN 55212-2
T2 construct: expressed in transfected cells; host or cells: CHO cells
T2 sequence (P34972 whole entry): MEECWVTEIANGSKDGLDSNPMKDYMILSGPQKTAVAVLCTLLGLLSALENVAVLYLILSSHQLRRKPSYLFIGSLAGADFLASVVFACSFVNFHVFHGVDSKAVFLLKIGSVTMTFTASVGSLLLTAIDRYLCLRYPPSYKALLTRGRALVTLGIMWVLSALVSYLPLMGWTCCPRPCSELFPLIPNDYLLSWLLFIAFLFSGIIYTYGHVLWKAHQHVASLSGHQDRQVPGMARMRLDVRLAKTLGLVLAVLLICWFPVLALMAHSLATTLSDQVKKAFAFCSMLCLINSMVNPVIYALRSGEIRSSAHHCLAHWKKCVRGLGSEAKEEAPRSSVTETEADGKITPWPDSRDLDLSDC
Protocol: In vitro binding assays were performed using recombinant CHO cells expressing human CB2 receptor and [3H]

pain threshold = assay: Pain threshold model, pressure apparatus on right paw; type: in vivo, rats; settings: for pain threshold, force: oral, 0.5 to 0.25 mg/kg, individual animals
Protocol: The compounds of the present invention have also been tested as analgesics or neuropathic pain modulators. To that end, the compounds PVNFKF, PVNFK, VNFKF, SEQ ID No. 1 were tested in the pain threshold model. The pain threshold was measured using a pressure apparatus (Ugo Basile, Italy), essentially as described (Randall and Selitto, 1957). Briefly, a force of increasing magnitude (16 g/s) was applied to the back of the right paw of rats. When animals react by kicking, the force in grams required to induce this response is the threshold of pain. Antinoniceptive activity was expressed as the increase in pain threshold compared to control animals.
The compounds of the invention were administered orally to the animals at doses of 0.5 to 0.25 mg/kg and saline was used as a control.

[2] = test system: experimental autoimmune encephalomyelitis (EAE); assay: EAE model of Multiple Sclerosis, MOG induction, Endopeptidase 24.15 knockout mice; type: in vivo; settings: 24.15 knock out mice, FIG. 25
Source text: In this embodiment, transgenic mice knockout of the Endopeptidase 24.15 gene were challenged with MOG (Myelin Oligodendrocyte Glycoprotein), with administration of the compound of the invention SEQ ID No. 1 or saline as a control. After the introduction of the disease, a daily evaluation of the symptoms was made, according to Table 11 below.

[3] = FIG. 6, 500 μg/kg before pilocarpine

With `NCCCCC(NC(=O)C(Cc1ccccc1)NC(=O)C(N)CC(N)=O)C(=O)NC(Cc1ccccc1)C(=O)O` (stereo not shown) [SEQ ID No. 1] (H-NFKF-OH; configuration not given here) the “area of the HPLC peak, control” value ([1]; control sample, n=2) was 120, the “area of the HPLC peak after freezing” value ([1]; freezing for 24 h) was 100 and the “part lost or degraded by freezing” value ([1]; freezing for 24 h) was 16.7%. For the same compound, the “degradation upon heating (in words)” value ([1]; heating at 100° C. for 10 minutes) was “did not suffer statistically significant degradation”, the “time for first salivation vs control (significance)” value (pilocarpine model; FIG. 4, cannabidiol 30 mg/kg, SEQ ID No. 1 500 μg/kg) was “does not present statistical significance” and the “number of animals that died” value (pilocarpine model; [3]) was “two”. For the same compound, the “remaining animals alive for more than a week” value (pilocarpine model; [3]) was 3 animals, the “prostration and nasal bleeding” value (pilocarpine model; SEQ ID No. 1 500 μg/kg, cannabidiol 30 mg/kg) was “no occurrence of prostration or nasal bleeding; also recorded: non-occurrence of prostration or nasal bleeding” and the “time of occurrence of the first salivation” value (pilocarpine model; Table 1, oral, 10 minutes prior to pilocarpine 320 mg/kg i.p., individual animals) was 3.2 min and 1.83 min and 1.97 min and 2.73 min and 1.58 min. The “time of occurrence of the first signal” value (pilocarpine model; Table 2, oral, 10 minutes prior to pilocarpine 320 mg/kg i.p., individual animals) was 12.33 min and 8.43 min and 10.23 min and 13.53 min and 9.9 min, the “time of occurrence of the first seizure” value (pilocarpine model; Table 3, oral, 10 minutes prior to pilocarpine 320 mg/kg i.p., individual animals) was 17.88 and 15.17 and 19.95 and 15.18 and 16 and the “time of death occurrence” value (pilocarpine model; Table 4, oral, 10 minutes prior to pilocarpine 320 mg/kg i.p., individual animals) was 18.92 min and 20 min and 15.18 min and 10.87 min. The “% binding to the CB1 receptor in relation to control” value (CB1 receptor) was 90.27% and 84.41% and 90.19% and 77.88% and 65.39%, the inhibition at 1 µM (human CB1 receptor; 1 µM) was -74.6% and the inhibition at 10 µM (human CB1 receptor; 10 µM) was -9.9%. For the same compound, the “% of inhibition of binding of specific control, 1st/2nd measurement” value (human CB2 receptor; 1 (unit uncertain)) was 3.5% and 0.3%, the “% of inhibition of binding of specific control, 1st/2nd measurement” value (human CB2 receptor; 10 (unit uncertain)) was 13.1% and the “modulation in binding of the radioligand (in words)” value (human CB2 receptor; conditions tested) was “did not provide significant modulation”. For the same compound, the “pain threshold, force” value (pain threshold; After 3 h) was 80 grams (2×) and 70 grams (3×) and 75 grams, the “pain threshold, force” value (pain threshold; Immediate) was 70 grams and 75 grams (3×) and 80 grams and 60 grams and the “greater pain threshold compared to PVNFKF” value (pain threshold; after 3 h) was 50.1%. For the same compound, the “clinical symptoms (Clinical Score)” value [2] was “impressive reduction of clinical symptoms”.
